From patent US12048685B2, “Transient receptor potential cation channel subfamily m member 8 (TRPM8) antagonists and methods of use” (Ora, Inc., priority 2015, dated 2024)
Counter-ions that a name gives are not always drawn.

Tests used:
[1] = Corneal sensitivity measured by Cochet Bonnet after topical dosing; type: in vivo, human
Experimental: (§1) A series of experiments were carried out assessing the clinical signs and symptoms of dry eye disease or severe dry eye disease using a commercially available TRPM8 antagonist, N-(2-Aminoethyl)-N-(4-(benzyloxy)-3-methoxybenzyl)thiophene-2-carboxamide hydrochloride, N-(2-Aminoethyl)-N-[[3-methoxy-4-(phenylmethoxy)phenyl]methyl]-2-thiophenecarboxamide hydrochloride (Sigma Aldrich M8-B hydrochloride (SML0893)), shown below as Compound I, at a concentration of 0.1% (vs placebo), administered unilaterally.
(§2) Post-dose, exposure to Menthol (ROHTO Hydra), as well as to an adverse environment (CAESM), was used to elicit symptomology in 3 patients with healthy eyes. Validated symptom scales were used to collect levels of discomfort secondary to the exposures (Ora Calibra™ Ocular Discomfort Questionnaire, Drop Comfort Questionnaire). A summary of the findings is presented below.
In a first set of experiments, the effect of Compound I on corneal sensitivity was examined. Subjects (shown by initials E-A, KJL, M-C) were dosed with 20 ul of Compound I (0.1%) or a placebo (BSS).

[2] = Ocular discomfort on exposure to a Controlled Adverse Environment (CAE); type: in vivo, human; conditions: CAE for 25 minutes, asked every 5 minutes, p<0.01, FIGS. 4A and B
Experimental: as §1, §2
The effect of CAE exposure after dosing with Compound I or placebo was examined. After dosing with Compound I or placebo, subjects were exposed to a Controlled Adverse Environment (CAE) for 25 minutes, in order to elicit symptomology similar in nature to dry eye symptoms. An Ocular Discomfort Questionnaire (0-4 scale) was asked every 5 minutes.

[3] = biological target: T1, TRPM-8 channels (Homo sapiens, UniProt Q7Z2W7); experiment: Post-menthol treatment symptoms (Drop Discomfort) after dosing, menthol-containing eyedrop (ROHTO Hydra); type: in vivo
T1 construct: from tissue; host or cells: eye (ocular surface) of living human subjects
Source text: Post-dose, exposure to Menthol (ROHTO Hydra), as well as to an adverse environment (CAESM), was used to elicit symptomology in 3 patients with healthy eyes. Validated symptom scales were used to collect levels of discomfort secondary to the exposures (Ora Calibra™ Ocular Discomfort Questionnaire, Drop Comfort Questionnaire). A summary of the findings is presented below. The effect of topical menthol application after dosing with Compound I or placebo was examined. After dosing with Compound I or placebo, 1 drop menthol-containing OTC eyedrop were administered bilaterally (ROHTO Hydra). Menthol is known to act upon TRPM-8 channels, effectively causing neural activity similar in nature to exposure to cold temperature. As such, menthol was used to induce a “cooling” symptom. […] Baseline (pre-menthol) symptoms were “0” for each eye, for all 3 subjects (data not shown).

[4] = Ocular discomfort on exposure to Turbo-CAE after CAE (severe dry eye symptoms); type: in vivo, human; conditions: 15 minutes of Turbo-CAE after 25-minute CAE, p<0.01, FIGS. 5A and B
Experimental: as §1, §2
Next, the effect of Turbo-CAE exposure after dosing with Compound I or placebo was examined. After 25-minute Controlled Adverse Environment (CAE) exposure, subjects were exposed to 15 minutes of Turbo-CAE, in order to elicit symptomology similar in nature to severe dry eye symptoms. An Ocular Discomfort Questionnaire (0-4 scale) was asked every 5 minutes.

[5] = tested on: Balb/C mice; conditions: 15 minutes and 24 hours post TRPM8 antagonist dose (0.01%, 0.05%, 0.10%), immediately post menthol dose, water control, FIG. 6
Experimental: Behavioral endpoints, e.g. blinking for balb/cs nice, was tested. […] Treatment of the mice with water was used as a control. TRPM8 antagonist was used at concentrations of 0.01%, 0.05% and 0.10%.

T1 sequence (Q7Z2W7 whole entry): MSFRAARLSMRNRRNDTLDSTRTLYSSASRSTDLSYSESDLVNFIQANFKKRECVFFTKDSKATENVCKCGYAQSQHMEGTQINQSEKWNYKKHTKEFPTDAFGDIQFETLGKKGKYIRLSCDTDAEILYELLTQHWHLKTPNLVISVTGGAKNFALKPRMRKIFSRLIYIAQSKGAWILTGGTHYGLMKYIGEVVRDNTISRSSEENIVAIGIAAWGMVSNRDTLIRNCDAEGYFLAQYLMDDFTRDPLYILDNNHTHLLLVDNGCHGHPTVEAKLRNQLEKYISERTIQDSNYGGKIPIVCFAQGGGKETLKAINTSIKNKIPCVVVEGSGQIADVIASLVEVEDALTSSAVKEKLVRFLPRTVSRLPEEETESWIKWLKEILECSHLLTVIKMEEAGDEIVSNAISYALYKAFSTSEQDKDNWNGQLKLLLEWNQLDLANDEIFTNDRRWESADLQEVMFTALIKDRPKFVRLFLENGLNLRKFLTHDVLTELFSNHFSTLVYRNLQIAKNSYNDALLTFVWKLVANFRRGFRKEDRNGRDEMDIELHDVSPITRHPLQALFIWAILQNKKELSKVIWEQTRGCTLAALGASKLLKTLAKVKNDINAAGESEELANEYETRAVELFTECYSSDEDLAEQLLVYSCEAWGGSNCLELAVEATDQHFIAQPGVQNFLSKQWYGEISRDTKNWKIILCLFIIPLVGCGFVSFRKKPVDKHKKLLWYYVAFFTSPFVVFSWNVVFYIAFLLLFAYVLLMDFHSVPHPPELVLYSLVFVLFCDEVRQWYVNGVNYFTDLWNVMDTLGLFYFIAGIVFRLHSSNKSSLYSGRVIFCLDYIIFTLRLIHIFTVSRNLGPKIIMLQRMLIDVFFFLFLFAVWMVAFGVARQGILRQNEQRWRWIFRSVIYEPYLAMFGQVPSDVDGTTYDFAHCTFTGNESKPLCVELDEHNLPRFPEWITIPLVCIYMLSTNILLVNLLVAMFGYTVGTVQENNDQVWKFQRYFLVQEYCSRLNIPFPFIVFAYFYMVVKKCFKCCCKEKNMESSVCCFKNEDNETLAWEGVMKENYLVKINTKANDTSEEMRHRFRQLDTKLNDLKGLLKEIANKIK

Row | effect on corneal sensitivity ([1]; 20 ul of 0.1%, unilateral, vs placebo (BSS), 3 subjects with healthy eyes, Cochet Bonnet, FIG. 2) | decrease in sensitivity ([1]; Subject, 70 mm to 65 mm, 20 ul of 0.1%) [mm] | changes in sensitivity ([1]; Subjects E-A and M-C, 20 ul of 0.1%) | difference in corneal sensitivity pre- to post-dose ([1]; p=0.42, 3 subjects) | action of menthol (cooling symptom) ([3]; 0.1% dosed before 1 drop menthol-containing OTC eyedrop bilaterally, FIGS. 3A and B) | Compound | symptom scores (Ocular Discomfort Questionnaire, 0-4 scale) vs placebo [2] | subject-reported symptom scores (Drop Discomfort, 0-10 scale) vs placebo ([3]; post-menthol, treated eye vs placebo eye, p<0.01, 3 subjects) | symptom scores (Ocular Discomfort Questionnaire, 0-4 scale) vs placebo [4] | blink rate per minute [5]
1 | minimal effect | 5 | no detectable changes | No significant difference | effectively block the action of menthol | COc1cc(CN(CCN)C(=O)c2cccs2)ccc1OCc1ccccc1 [Compound I, N-(2-Aminoethyl)-N-(4-(benzyloxy)-3-methoxybenzyl)thiophene-2-carboxamide hydrochloride] | significantly lower symptom scores than placebo | significantly lower symptom scores than placebo | significantly lower symptom scores than placebo | –
2 | – | – | – | – | – | CC1CCC(C(C)C)C(O)C1 (stereo not shown) [menthol] | – | – | – | increase in blink rate
3 | – | – | – | – | – | N-(2-Aminoethyl)-N-(4-(benzyloxy)-3-methoxybenzyl)thiophene-2-carboxamide hydrochloride [Compound I] | – | – | – | reproducibly blocked
